Source: patent US20250339409A1, “USES OF PAN BET INHIBITORS” (VYNE THERAPEUTICS INC., priority 2021, published 2025)
“And” between values parts separate entries of the source, which are not always exact repeats. Equal entries are not always repeated.

Tests used:
TRP-1 = test: RHE vitiligo model: melanocyte localization after TRP-1 immunostaining; type: cell-based, human; settings: for Mean per RHE (%): RHE1-3
Method: TRP-1 (tyrosinase related protein-1) is a melanocyte specific protein and a member of the tyrosinase gene family which also includes tyrosinase. It is very often used as specific marker of melanocytes. To visualize and quantify the melanocytes within the epidermis, sections of epidermis (6 μm thick) prepared from epidermis embedded in paraffin are used for TRP-1 immunostaining.
After deparaffination and re-hydration, antigen unmasking is performed by heating in citrate ph6 buffer. Samples are then saturated with goat serum, in order to avoid unspecific labelling.
Samples are incubated overnight, at 4° C., with a primary antibody raised against human TRP-1 (Abcam; Ab235447). After washing, the samples are incubated (for 30 minutes, at room temperature) with a secondary antibody anti-rabbit coupled to Alexa Fluor 488 dye (Thermo Fisher Scientific; A-11008). Samples are then incubated with DAPI or 4′,6′-diamidino-2-phenylindole (Thermo Fisher Scientific, D1306), a fluorescent molecule able of binding to the adenine and thymine bases of DNA and slides are mounted with specific medium, before taking the images. For each tissue/sample, 1 slide section is used to make 3 images. Images are taken using a Nikon Eclipse (Ni-E) photomicroscope coupled to a numerical camera (DS-Ri2). Quantification of the protein is performed with NIS-Element AR software (Nikon). The detection thresholds are firstly determined, using the most marked slices, in order to avoid saturation of detection. For each image, a region of interest (ROI) is delimited manually (including only the basal layers of epidermis which are supposed to contain the melanocytes) and its surface was measured. The software then measures the marked area within the delimited area, in number of pixels. The mean intensity of the marked surface multiplied by the “marked surface” determines the staining for the given ROI. This value is then normalized for a given surface by dividing the staining value by the surface of the ROI.
Formulations containing four doses of BETi1 the BETi1 vehicle (placebo), were evaluated in RHE TNF-α/IFN-γ vitiligo model as described in Experimental section Method G and representative images of RHE after TRP-1 staining are shown in FIG. 7A and respective quantification with and without normalization are shown in Table 19 and Table 20 and FIGS. 7B and FIG. 7C respectively. The stimulation with the cytokine cocktail (TNF-α and IFN- ? ) in accordance with Part A and B, reduced the expression of TRP-1 and thus the abundance of melanocytes in the basal layers of the RHE, confirming the melanocytorhagy. In the model, stimulated treated with the vehicle induced a significant […] of TRP-1 abundance as compared to the stimulated untreated control. Without being bound by any theory the barrier effect provided by petrolatum in the vehicle, which increases skin hydration, has some effect on retention of melanocytes in the basal layer. […] A dose response could clearly be observed with the BETi1 formulation, with a tendency to the increase for the dose of 0.1% and with the two last concentrations being not significant. The effects of the ruxolitinib cream at 1% could not be assessed given that the sections have detached from the glass slides during the immunostaining process (probably without being bound by any theory may be due to the bad structure of the epidermis).

[1] = tested on: anti collagen antibodies induced arthritis (ACAIA); test: ACAIA mice: histopathology of hind paws (tarsus); type: in vivo, Balb/c mice; design: key to Histology: Score / Histology: Score, MEAN: 0 = within normal limits, 1 minimal, 2 mild, 3 moderate, 4 severe; settings: for Histology: Score, MEAN: group mean; for Histology: Bones / Histology: Cartilage / Histology: Joint space / Histology: Score / Histology: Soft tissue: individual animals;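 as to all read-outs here: Mid-sagittal H&E-stained sections of mouse tarsus taken at study end, lesion severity graded from 0 (normal) to 4 (severe)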
From the text: At the end of the study, the mice are euthanized using pentobarbital sodium injection. Once euthanized, one hind paw of each animal is harvested and collected into vials containing 4% formalin for histology analysis.
The samples are sagittal sections of the right and left murine tarsus. The histology scoring is based on the severity of the lesions, taking into account both the number of infiltrating cells and the extent of cartilage and bone damage. To be classified as severe, a lesion has to show bone and cartilage damage (beyond degeneration for the latter). The scores are 0=within normal limits, 1-minimal, 2-mild, 3-moderate, 4-severe.
Statistics and data evaluation are primarily based on the mean values for body weight, arthritis clinical scoring and paw thickness measurements. Where appropriate, analysis of the data by one-way ANOVA followed by Dunnett's post-test is applied to determine the significance of treatment effects. All data for the histopathological analysis is presented as Mean±SEM. The treatment groups are compared to the Vehicle group (Group 1) or the contralateral hind paw using the Student's T-test. A p-value <0.05 is considered to represent a significant difference.
Histopathological analysis was conducted in accordance with Method B. Tissues from groups 1, 2, 3 and 7 were processed. Following decalcification, the tissues were cut mid-sagitally and were processed and sectioned for H & E staining. The histopathological analysis included an examination of the number of infiltrating cells and the extent of cartilage and bone damage.

[2] = BETi1 0.001%, stimulated RHE, without normalization to ROI
[3] = BETi1 1%, stimulated RHE, with normalization to ROI
[4] = BETi1 1%, stimulated RHE, without normalization to ROI
[5] = BETi1 10.001% [sic], stimulated RHE, with normalization to ROI
[6] = 1 mg/kg IA (Group 3), L paw (injected)
[7] = 1 mg/kg IA (Group 3), R paw (contralateral)
[8] = 10 mg/kg IA (Group 2), Mean±SEM
[9] = 10 mg/kg IA (Group 2), L paw (injected)
[10] = 10 mg/kg IA (Group 2), R paw (contralateral)
[11] = 1 mg/kg IA (Group 7), L paw (injected)
[12] = 1 mg/kg IA (Group 7), R paw (contralateral)

Cn1cc(-c2cccc(O)c2Oc2ccccc2)c2cc[nH]c2c1=O [BETi1]
Mean per condition (%) (TRP-1; [2]): 24% | Mean per RHE (%) (TRP-1; [2]): 21.6% and 27.0% and 22.1% | Mean per condition (%) (TRP-1; BETi1 0.01%, stimulated RHE, with normalization to ROI): 15% | Mean per condition (%) (TRP-1; BETi1 0.01%, stimulated RHE, without normalization to ROI): 20% | Mean per condition (%) (TRP-1; BETi1 0.1%, stimulated RHE, with normalization to ROI): 92% | Mean per condition (%) (TRP-1; BETi1 0.1%, stimulated RHE, without normalization to ROI): 120% | Mean per condition (%) (TRP-1; [3]): 149% | Mean per RHE (%) (TRP-1; [3]): 169% and 120% and 158% | Mean per condition (%) (TRP-1; [4]): 192% | Mean per RHE (%) (TRP-1; [4]): 220.8% and 151.1% and 203.4% | Mean per condition (%) (TRP-1; [5]): 17% | Mean per RHE (%) (TRP-1; [5]): 18% and 19% and 14% | TRP-1 in the basal layers (TRP-1; BETi1 formulation at 1%, stimulated RHE): TRP-1 is significantly increased in the basal layers | TRP-1 % staining relative to stimulated control, Mean per RHE (%) (TRP-1; Stimulated + BETi1 0.001%): 6% and 8% | TRP-1 % staining relative to stimulated control, Mean per condition (%) (TRP-1; Stimulated + BETi1 0.001%): 7% | TRP-1 % staining relative to stimulated control, Mean per condition (%) (TRP-1; Stimulated + BETi1 0.01%): 30% | TRP-1 % staining relative to stimulated control, Mean per condition (%) (TRP-1; Stimulated + BETi1 0.1%): 227% | TRP-1 % staining relative to stimulated control, Mean per condition (%) (TRP-1; Stimulated + BETi1 1%): 292% | mean histopathological score, treated left hind paw ([1]; 1 mg/kg IA (Group 3), Mean±SEM): 2.14±0.55 a.u. | Histology: Score, MEAN [1, 6]: 2.14 | Histology: Bones [1, 6]: 3.5 and 2 and 0 (3×) and 3 and 4 | Histology: Cartilage [1, 6]: 3.5 and 2 and 0 (3×) and 3 and 4 | Histology: Joint space [1, 6]: 4 (4×) and 0 (3×) | Histology: Score [1, 6]: 3.5 (3×) and 2.5 and 1 (2×) and 0 | Histology: Soft tissue [1, 6]: 3 (2×) and 2.5 (2×) and 1 (2×) and 0 | Histology: Score, MEAN [1, 7]: 3.57 | Histology: Bones [1, 7]: 4 (5×) and 0 and 3.5 | Histology: Cartilage [1, 7]: 4 (6×) and 0 | Histology: Joint space [1, 7]: 4 (6×) and 0 | Histology: Score [1, 7]: 4 (6×) and 1 | Histology: Soft tissue [1, 7]: 4 (3×) and 1 and 3.5 (2×) and 3 | histopathology findings, treated paws ([1]; 1 mg/kg IA (Group 3L), 3/7 cases): moderate to severe lesions with destruction of cartilage and bone | mean histopathological score, contralateral right hind paw [1, 8]: 4.00±0.00 a.u. | mean histopathological score, treated left hind paw [1, 8]: 0.33±0.21 a.u. | Histology: Score, MEAN ([1]; 10 mg/kg IA (Group 2), L paw (injected), **p < 0.01 vs Vehicle Group, ##p < 0.01 vs contralateral (Right) paw): 0.33**## | Histology: Bones [1, 9]: 0 | Histology: Cartilage [1, 9]: 0 | Histology: Joint space [1, 9]: 0 | Histology: Score [1, 9]: 0 (4×) and 1 (2×) | Histology: Soft tissue [1, 9]: 0 (4×) and 1 (2×) | Histology: Score, MEAN [1, 10]: 4.00 | Histology: Bones [1, 10]: 4 | Histology: Cartilage [1, 10]: 4 | Histology: Joint space [1, 10]: 4 | Histology: Score [1, 10]: 4 | Histology: Soft tissue [1, 10]: 4 (4×) and 3.5 (2×) | histopathology findings, treated paws ([1]; 10 mg/kg IA (group 2L)): 4/6 were WNL

C[C@@H]1C[C@H]2[C@@H]3CCC4=CC(=O)C=C[C@]4(C)[C@@]3(F)[C@@H](O)C[C@]2(C)[C@@]1(O)C(=O)CO [dexamethasone, Dexamethasone, reference compound]
Histology: Score, MEAN [1, 11]: 2.93 | Histology: Bones [1, 11]: 4 (2×) and 0 and 3 (3×) and 2.5 | Histology: Cartilage [1, 11]: 4 (2×) and 0 and 3 (2×) and 2.5 (2×) | Histology: Joint space [1, 11]: 4 (6×) and 0 | Histology: Score [1, 11]: 4 (2×) and 1 and 3 (3×) and 2.5 | Histology: Soft tissue [1, 11]: 4 (2×) and 1.5 and 2 (2×) and 3 and 2.5 | Histology: Score, MEAN [1, 12]: 2.29 | Histology: Bones [1, 12]: 0 (3×) and 4 (4×) | Histology: Cartilage [1, 12]: 0 (3×) and 4 (4×) | Histology: Joint space [1, 12]: 0 (3×) and 4 (4×) | Histology: Score [1, 12]: 0 (3×) and 4 (4×) | Histology: Soft tissue [1, 12]: 0 (3×) and 4 (4×)
